Assays:
MYC expression = experiment: Inhibition of MYC expression in MV-4-11 cells; assay type: cell-based; settings: 4 h; for IC50: QuantiGene 2.0, geometric mean; for Maximum Inhibition (%): maximum inhibition of MYC expression
Experimental: Pharmacologic inhibition of MYC is achievable through targeting BET bromodomains through small molecule binder or degrader mechanisms. Such inhibitors may have clinical utility given the widespread pathogenetic role of MYC in cancer. See, e.g., Mertz J, et al., “Targeting MYC dependence in cancer by inhibiting BET bromodomains,” (2011) Proc. Natl. Acad. Sci. USA, Vol. 108 (40), pp. 16669-16674.
To determine the inhibition of MYC expression, MV-4-11 cells (ATCC) were plated at 10,000 cells per well in 96-well plates in RPMI1640 media supplemented with 10% fetal bovine serum and 2 mM L-glutamine. Test compounds diluted in DMSO were transferred to the cell plates, keeping final DMSO concentration consistent at 0.1%, and incubated for 4 h at 37° C. Lysis and analysis for MYC expression were carried out using QuantiGene 2.0 reagents (Affymetrix/eBioscience, probe set cat #SA-50182) and following the vendor's instructions. Luminescence was read using an EnVision plate reader (PerkinElmer) and IC50s generated in Genedata Screener using a 4-parameter non-linear regression fit.
Effective degraders will surpass this and inhibit >95% of MYC, thus following the maximum inhibition within this assay provides valuable SAR. Where more than one measurement was performed for the same assay, the value reported is the geometric mean of all values.

BRD4 = BRD4 (Homo sapiens (Human), UniProt O60885); experiment: BRD4 degradation assay in EOL-1 cells, high content fluorescence imaging; assay type: cell-based; settings: 4 hours; for DC50: BRD4 immunofluorescence, read-out: EOL-1 EC50; for EOL-1 Sinf (%): maximum degradation, percent change in protein level (-100% = complete loss)
Experimental: PC3 (Steap-1) prostate cancer cells: PC3 (Steap-1) prostate cancer cells (PC3 cells overexpressing the surface protein Steap-1) were seeded on day 1 at a density of 200,000 cells/mL in 45 μl/well in cell plates in a 384 well Greiner/Perkin Elmer Cell Carrier TC Treated plate (part #6007430) in Assay Medium (RPMI, 10% FBS, 2 mM Glutamax). Cells were incubated overnight at 37° C. degrees. On day 2, compounds were serially diluted 3-fold in DMSO spanning the concentrations 10 mM to 8.6 nM, in 384 well clear polypropylene plates (Greiner Cat #781201). DMSO and 10 mM of a control PROTAC (dBET1, as described in WO 2017/024317, p. 235, structure below) (control compound) were added to designated wells. Compounds and controls were diluted 50-fold (2 μl of DMSO stock into 98 μl) into Assay Medium. 5 μl of the diluted compounds was transferred to the cell plates. The final top concentration of the test compounds in the cell plates was 20 μM. Cell plates were incubated at 37° C., for 4 hours. Fixation and permeabilization were carried out using a Biotek EL406 plate washer and dispenser as follows. Cells were fixed by addition of 15 μL of 16% paraformaldehyde (Electron Microscopy Sciences #15710-S) directly to the 50 μL cell culture medium in each well using the peristaltic pump 5 μL cassette on a Biotek EL406 (final concentration of formaldehyde was 3.7% w/v). Samples were incubated 30 minutes. Well contents were aspirated and 50 μL/well of Phosphate Buffered Saline (PBS) containing 0.5% w/v bovine serum albumen, 0.5% v/v Triton X-100 (Antibody Dilution Buffer) was added to each well. Samples were incubated for 30 minutes. Well contents were aspirated and washed 3 times with 100 μL/well of PBS.
EOL-1 cells: The BRD4 degradation assay was performed on EOL-1 cells using the same procedure as described above for PC3 (Steap-1) prostate cancer cells, except EOL-1 cells were seeded at 1,000,000 cells/mL. Following aspiration and washing of the well contents with 100 μL/well of PBS, 40 μL PBS plus 10% normal goat serum was added per well for 20 minutes at room temperature.
For both the PC3 and EOL-1 cell assays, immunofluorescence staining of BRD4 was carried out using a Biotek EL406 plate washer and dispenser as follows. The well supernatant was aspirated from the wells and 25 μL/well of rabbit mAb Anti-BRD4 [EPR5150(2)] abeam 128874 diluted 1:500 in Antibody Dilution Buffer is dispensed. Samples were incubated for 2 hours at room temperature. Samples were washed 4 times with 100 μL/well of PBS. 25 μL/well of secondary antibody solution (Goat Anti-Rabbit IgG, DyLight 488 Conjugated Highly Cross-adsorbed #35553 1:1000) diluted 1:1000 and Hoechst 33342 1 μg/ml diluted in Antibody Dilution Buffer) were dispensed into each well. 16 wells of the plate, which were designated as ‘no primary antibody” wells, received only Antibody Dilution Buffer (without anti-BRD4 antibody). Samples were incubated for 2 hours at room temperature. Samples were washed 3 times with 100 μL/well of PBS using a Biotek EL406. Quantitative fluorescence imaging of BRD4 was carried out using a Phenix (Perkin Elmer). Fluorescence images of the samples (Channel 1: Hoechst33342 (DNA stain); Channel 2: 488 nm (BRD4 stain)) were acquired. Channel 1 (DNA stain) was used to define the “Region of Interest” (ROI) nuclear region. Measurements of BRD4 average immunofluorescence intensity within the ROI (nuclear region), were made on a per cell basis and averaged over all the measured cells. Data analysis was carried out using Genedata Screener Software, with DMSO and “no primary antibody” samples being used to define the 0% and 100% changes in BRD4. The “Robust Fit” method was used to define the inflexion point of curve (EC50) and the plateau of the maximal effect (Sinf). The Sinf value reports degradation as percent change in protein level, so complete loss of the protein target is −100%. […]

Compound	IC50 (MYC expression)	Maximum Inhibition (%) (MYC expression)	DC50 (BRD4)	EOL-1 Sinf (%) (BRD4)
Cc1ncsc1-c1ccc(C2(C)NC(C3C[C@@H](O)CN3C(=O)C(c3cc(OCCN4CC[C@H](NC(=O)c5cc6c(cc5CS(C)(=O)=O)-c5cn(C)c(=O)c7[nH]cc(c57)CN6c5ncc(F)cc5F)C4)no3)C(C)C)=NC2=O)cc1 (single isomer, unassigned) [Example 1002.1]	51.5 nM	76.4%	> 20000 nM	–
Cc1ncsc1-c1ccc([C@]2(C)NC([C@@H]3C[C@@H](O)CN3C(=O)C(NC(=O)CCCCCCCCCCNC(=O)c3cc4c(cc3CS(C)(=O)=O)-c3cn(C)c(=O)c5[nH]cc(c35)CN4c3ncc(F)cc3F)C(C)(C)C)=NO2)cc1 (single isomer, unassigned) [Example 1006.1]	–	–	1.02 nM	−92.6%
Cc1ncsc1-c1ccc(C2(C)NC(C3C[C@@H](O)CN3C(=O)C(c3cc(OCCN4CC[C@H](NC(=O)c5cc6c(cc5CS(C)(=O)=O)-c5cn(C)c(=O)c7[nH]cc(c57)CN6c5ncc(F)cc5F)C4)no3)C(C)C)=NC2=O)cc1 (single isomer, unassigned) [Example 1002.2]	25.7 nM	90.3%	0.31 nM	−65.0%

— patent US11242344B2, “(4-hydroxypyrrolidin-2-yl)-heterocyclic compounds and methods of use thereof” (Genentech, Inc., priority 2017, dated 2022)
